The compounds below were run against T1, HIV integrase (HIV-IN) (Human immunodeficiency virus type 1 group M subtype B, UniProt P04585) (assay: in vitro HIV integrase inhibition assay (3′-processing and DNA strand transfer, purified recombinant integrase, 21-mer duplex oligonucleotide substrate)). Details: cell-free assay, 50% reduction in enzymatic activity; read-out: IC50 values against HIV-IN.
T1 construct: employs a purified recombinant integrase
Type: biochemical
Source text: Generally, a particular compound's HIV integrase inhibitory potency can be measured by observing the effects of that compound on the integrase enzyme's catalytic activity. HIV integrase has two catalytic functions: (1) 3′-processing, which removes a dinucleotide unit from the 3′-ends of viral DNA; and (2) DNA strand transfer, which […]. These two catalytic steps can be measured in an in vitro assay which employs a purified recombinant integrase and a 21-mer duplex oligonucleotide substrate corresponding to the U5 region of the HIV long terminal repeat (LTR) sequence. This assay permits simultaneous measurement of inhibition constants for both 3′-processing and DNA strand transfer. Inhibitory concentrations (i.e., IC50 values) are determined based on an observed 50% reduction in enzymatic activity in cell-free assays. (See e.g., Zhao H., Neamati N., Mazumder A., Sunder S., Pommier Y., ad Burke T. “Arylamide Inhibitors of HIV-1 Integrase” J. Med. Chem. 1997, 40, 1186-1194).
Compound 76 (an acetylated derivative of Compound 80), Compound 78 (a symmetrical, hydroxylated derivative of Compound 80), and Compound 82 (an acetylated and methylated derivative of Compound 80) have been prepared in accordance with the various aspects of the present invention and have been tested in accordance with the above-described known method of testing HIV-IN inhibition.
`O=S(=O)(C=Cc1ccc(O)c(O)c1)CS(=O)(=O)C=Cc1ccc(O)c(O)c1` [Compound 78] showed an IC50 of 4 to 6 µM. Work on `COc1cc(C=CS(=O)(=O)CS(=O)(=O)C=Cc2cc(OC)c(OC(C)=O)c(OC(C)=O)c2)cc(OC(C)=O)c1OC(C)=O` [Compound 82] yielded an IC50 of 4 µM. With `CC(=O)Oc1ccc(C=CS(=O)(=O)CS(=O)(=O)C=Cc2ccc(OC(C)=O)c(OC(C)=O)c2)cc1OC(C)=O` [Compound 76] the IC50 was 73 to 77 µM.

— patent publication US6812365B2, “Disulfone reagents and methods of preparing and using same” (The Arizona Disease Control Research Commission, priority 1999, dated 2004)
